{"source": "paper PMC8634379", "about": "“From the Design to the In Vivo Evaluation of Benzohomoadamantane-Derived Soluble Epoxide Hydrolase Inhibitors for the Treatment of Acute Pancreatitis” (Journal of Medicinal Chemistry, 2021)", "key": {"[1]": {"assay": "Concentrations in plasma and pancreatic tissue in the efficacy study", "type": "in vivo, C57BL/6 male mice", "conditions": "10 h post-administration; for concentration at 10 h: male, C57BL/6, mouse, intraperitoneal", "excerpt": "During the experimental procedure, the animals were identified with a permanent marker (tail code numbers). […] They underwent a period of 7 days of acclimatization between the date of arrival and the start of the procedure. […] Diet was provided to the animals ad libitum, but they were fasted overnight before the first cerulein injection, and food was replaced after the last cerulein injection. Tap water was supplied by CASSA (Servei d’Aigües de Sabadell) ad libitum. […] Ministry of agriculture, livestock and fishing of the Autonomous Government of Catalonia, Spain. […] The vehicle was prepared the day before and kept at 4 °C. Pancreatitis induction: Mice (n = 41) were weighed, identified by a distinct number at the base of the tail, and fasted overnight. Cerulein (cerulein and cerulein + 22 groups) (50 μg/kg, prepared in 0.9% NaCl) or vehicle (0.9% NaCl) (control group) were intraperitoneally injected (V = 5 mL/kg) 12 consecutive times, at 1 h intervals (h = 0–11). Food was replaced after the last injection. A satellite experiment was designed where animals (n = 3) were distributed in control, cerulein, and cerulein + 22-treated groups. Pancreatitis was induced by seven injections of cerulein (or vehicle in the control group) at 1 h intervals (h = 0–6). […] Animals from the control and cerulein groups received vehicle administration (10% 2-hydroxypropyl-β-cyclodextrin) (V = 10 mL/kg). Extra groups were treated 2 h after the first cerulein injection: 22 (0.3 mg/kg), control, and cerulein groups (10% 2-hydroxypropyl-β-cyclodextrin). […] Blood was collected from the vena cava in an Eppendorf containing K2-EDTA and centrifuged at 10,000 rpm for 5 min for plasma collection. Plasma was stored at −80 °C until analysis. The mice were sacrificed by cervical dislocation and the pancreases were dissected and weighed. Pancreases from three animals were frozen in liquid N2 and stored at −80 °C until analysis. Pancreases from five mice were sectioned and one part was placed in 10% formalin and sent to Anapath (Granada, Spain) for histology analysis and the other was immediately placed in RNAse-free eppendorfs, frozen in N2, and stored at −80 °C for gene expression assays."}, "[2]": {"system": "cerulein-induced acute pancreatitis", "assay": "In vivo efficacy, cerulein-induced acute pancreatitis murine model", "set-up": "species or system C57BL/6 male mice", "excerpt": "Forty-one male C57BL/6 mice (8-week-old; approximately 24 g) were supplied by Envigo (Barcelona, Spain) (Ref 16512). During the experimental procedure, the animals were identified with a permanent marker (tail code numbers). Upon arrival, the animals were housed in groups of 8–9 animals/cage in polysulfone maintenance cages (480 × 265 × 210 mm, with a surface area of 940 cm^2) with wire tops and wood chip bedding. The animals were kept in an environmentally controlled room (ventilation, temperature 22 ± 2 °C, and humidity 35–65%) on a 12 h light/dark cycle. They underwent a period of 7 days of acclimatization between the date of arrival and the start of the procedure. […] The maintenance diet was supplied by Harlan Interfauna Ibérica S.L. (2018 Harlan Teklad Global Diets). Diet was provided to the animals ad libitum, but they were fasted overnight before the first cerulein injection, and food was replaced after the last cerulein injection. Tap water was supplied by CASSA (Servei d’Aigües de Sabadell) ad libitum. The animals were maintained in accordance with the European Directive for the Protection of Vertebrate Animals Used for Experimental and other Scientific Purposes (86/609/EU). Decree 214/1997 of 30th July. Ministry of agriculture, livestock and fishing of the Autonomous Government of Catalonia, Spain. Royal Decree 53/2013 of 1st February (Spain). All the experimental procedures were approved by the Ethical Committee on human and animal experimentation (CEEAH) of Universitat Autònoma de Barcelona (UAB) (procedure number: 4107) and by the Animal Experimentation Commission of the Generalitat de Catalunya (Catalan Government) (DAAM: 10146). The test item was dissolved in vehicle 10% 2-hydroxypropyl-β-cyclodextrin (CAS 128446-35-5) Sigma-Aldrich (Ref 332607). The vehicle was prepared the day before and kept at 4 °C. Pancreatitis induction: Mice (n = 41) were weighed, identified by a distinct number at the base of the tail, and fasted overnight. Cerulein (cerulein and cerulein + 22 groups) (50 μg/kg, prepared in 0.9% NaCl) or vehicle (0.9% NaCl) (control group) were intraperitoneally injected (V = 5 mL/kg) 12 consecutive times, at 1 h intervals (h = 0–11). Food was replaced after the last injection. A satellite experiment was designed where animals (n = 3) were distributed in control, cerulein, and cerulein + 22-treated groups. Pancreatitis was induced by seven injections of cerulein (or vehicle in the control group) at 1 h intervals (h = 0–6). Treatments: the test item was administered intraperitoneally in one injection to 22_03 (0.3 mg/kg) and 22_01 (0.1 mg/kg) groups at 14 h after the first cerulein injection. Animals from the control and cerulein groups received vehicle administration (10% 2-hydroxypropyl-β-cyclodextrin) (V = 10 mL/kg). Extra groups were treated 2 h after the first cerulein injection: 22 (0.3 mg/kg), control, and cerulein groups (10% 2-hydroxypropyl-β-cyclodextrin). Study end: 24 h after the first cerulein injection, animals were weighed and anesthetized with isoflurane. Blood was collected from the vena cava in an Eppendorf containing K2-EDTA and centrifuged at 10,000 rpm for 5 min for plasma collection. Plasma was stored at −80 °C until analysis. The mice were sacrificed by cervical dislocation and the pancreases were dissected and weighed. Pancreases from three animals were frozen in liquid N2 and stored at −80 °C until analysis. Pancreases from five mice were sectioned and one part was placed in 10% formalin and sent to Anapath (Granada, Spain) for histology analysis and the other was immediately placed in RNAse-free eppendorfs, frozen in N2, and stored at −80 °C for gene expression assays.\nPancreatic samples were treated with increasing grade alcohols and two xylol baths and embedded in paraffin. They were subsequently cut using a microtome and processed for staining. […]"}, "[3]": {"conditions": "Cerulein + 22 (0.3 mg/Kg), samples 1-5, score 0 (no changes) to 4 (very serious)"}}, "note": "Like-named read-outs stand apart in the source and are kept apart here."}
{"smiles": "O=C(NC12CC3CC(Cl)(CC(C1)c1ccccc13)C2)N[C@H]1CC[C@H](Oc2ccc(C(=O)O)cc2)CC1", "note": "[Compound 22, 4-[((1r,4r)-4-(3-(9-Chloro-5,6,8,9,10,11-hexahydro-7H-5,9:7,11-dimethanobenzo[9]annulen-7-yl)ureido)cyclohexyl)oxy]benzoic Acid]", "values": [{"measurement": "concentration in pancreatic tissues", "setting": "[1]; 0.1 mg/kg IP", "value": "no amount of 22 was detected"}, {"measurement": "concentration at 10 h", "setting": "[1]; pancreas, 0.3 mg/kg IP, read-out: concentration in pancreas", "value": 29.9, "unit": "ng/g"}, {"measurement": "concentration at 10 h", "setting": "[1]; plasma, 0.1 mg/kg IP, read-out: plasma level", "value": 14, "unit": "nM"}, {"measurement": "concentration at 10 h", "setting": "[1]; plasma, 0.3 mg/kg IP, read-out: plasma level", "value": 175, "unit": "nM"}, {"measurement": "body weight change at the end of the study", "setting": "[2]; 22 0.1 mg/kg IP single dose, did not reach statistical significance", "value": "increased body weight"}, {"measurement": "body weight change at the end of the study", "setting": "[2]; 22 0.3 mg/kg IP single dose, p < 0.01 vs Cerulein group", "value": "increased body weight"}, {"measurement": "histologic score: Hemorrhage", "setting": "[2]; Cerulein + 22 (0.1 mg/Kg), samples 1-5, score 0 (no changes) to 4 (very serious)", "value": 0}, {"measurement": "histologic score: Hemorrhage", "setting": "[2]; [3]", "value": 0}, {"measurement": "histologic score: Mononuclear inflammatory cells", "setting": "[2]; [3]", "value": 0}, {"measurement": "histologic score: Necrosis", "setting": "[2]; [3]", "value": 0}, {"measurement": "histologic analysis of pancreas, effect on cerulein-induced damage", "setting": "[2]; both doses (0.1 and 0.3 mg/kg)", "value": "ameliorated cerulein-induced effects"}, {"measurement": "histologic analysis of pancreas, effect on cerulein-induced damage", "setting": "[2]; higher dose (0.3 mg/kg)", "value": "more efficiently reversed the pancreatic damage, edema, and neutrophil infiltration"}]}
